Measured values reported in patent publication EP0339176A1, “Suppository containing a non-steroidal anti-inflammatory medicament” (AMERICAN CYANAMID COMPANY, priority 1988, dated 1989).

What was measured:
[1] = Clinical bioavailability study of Fenbufen suppositories; assay type: in vivo; details: rectal
Method: Rectal administration of non-steroidal anti-inflammatory drugs can be clinically advantageous in some circumstances, in that it can prolong the effect of the drug. For example, when certain non-steroidal drugs are given rectally to a patient immediately prior to retiring for the night, sufficient blood levels of the drug are still available some 6-7 hours later to prevent morning stiffness. However, in the case of Fenbufen, the high level required for the nocturnal dose (450-600 mg) makes it difficult to deliver this drug successfully from the rectum. […] Accordingly, Fenbufen-containing suppository formulations for rectal administration have not been available, which is a disadvantage when Fenbufen would otherwise be the drug of choice for the patient.

[2] = Solubility of BPAA salts in water relative to the free acid; details: salt versus free acid

Row | Compound | bioavailability of the active ingredient from suppositories [1] | increase of the solubility of (1,1′-biphenyl)-4-acetic acid in water [2]
1 | O=C(O)CCC(=O)c1ccc(-c2ccccc2)cc1 [Fenbufen, 4-(biphenyl-4-yl)-4-oxo-butyric acid] | low bioavailability | –
2 | O=C(O)Cc1ccc(-c2ccccc2)cc1 [sodium] | – | 8-9 fold
